Results published in US8748491B2, “Dietary and pharmaceutical compositions containing tricyclic diterpenes and their derivatives and their uses” (priority 2006, dated 2014).

Legend:
[1] = target: T1, Monoamine oxidase B (MAO-B) (Homo sapiens, UniProt P27338); assay: Monoamine oxidase B inhibition (benzylamine substrate, H2O2/vanillic acid/HRP readout); assay type: biochemical
T1 sequence (P27338 1-520): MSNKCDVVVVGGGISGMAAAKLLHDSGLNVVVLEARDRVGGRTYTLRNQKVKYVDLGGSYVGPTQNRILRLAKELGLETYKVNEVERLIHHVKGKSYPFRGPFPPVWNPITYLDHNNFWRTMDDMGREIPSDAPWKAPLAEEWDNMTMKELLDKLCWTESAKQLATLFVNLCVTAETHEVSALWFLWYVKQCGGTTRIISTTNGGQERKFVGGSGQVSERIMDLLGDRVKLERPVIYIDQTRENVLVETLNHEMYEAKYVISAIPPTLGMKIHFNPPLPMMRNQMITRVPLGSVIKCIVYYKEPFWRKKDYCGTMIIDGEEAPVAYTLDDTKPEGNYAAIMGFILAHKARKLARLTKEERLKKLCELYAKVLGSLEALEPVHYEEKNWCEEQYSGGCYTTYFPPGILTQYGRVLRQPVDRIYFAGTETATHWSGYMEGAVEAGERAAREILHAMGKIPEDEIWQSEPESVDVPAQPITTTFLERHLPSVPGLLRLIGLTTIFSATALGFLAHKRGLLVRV
Method: The organic amines p-tyramine or benzylamine were used as substrates for the Monoamine oxidase A (MAO-A) and B (MAO-B) enzymes respectively. The H2O2 produced by this reaction was quantified by reaction with vanillic acid, catalysed by horse radish peroxidase (HRP).
The reactions were carried out in polystyrene microtitre plates. The MAO enzymes (final concentration 2 U/ml) were mixed with either p-tyramine (Sigma, final concentration 0.5 mM) or benzylamine (Sigma, final concentration 0.5 mM) as appropriate and the chromogenic solution (containing vanillic acid (Fluka), 4-aminoantipyrine (Fluka) and horse radish peroxidase (Sigma), final concentrations 0.25 mM, 0.125 mM and 1 U/ml respectively) in 0.2 M potassium phosphate buffer, pH 7.6. The reactions were followed in a microtitre plate absorbance reader e.g. Spectramax M5 (Molecular Devices Corporation). Absorbance readings at 495 nm were taken every 15 seconds for 40 minutes and the initial reaction velocities calculated by linear regression using SOFTmaxPro (Molecular Devices Corporation).
The effect of tricyclic diterpenes and their derivatives according to formula I on the monoamine oxidase enzymes was determined by their inclusion in the assay at a range of concentrations between 0.03 and 100 μM for 10 minutes prior to and during the incubation with substrate. To determine the effect of the compounds on the HRP catalyzed portion of the reaction, the MAO enzyme was replaced by H2O2 (Molecular Probes, final concentration 0.2 mM). The reactions containing MAO-A and MAO-B were both inhibited by tricyclic diterpenes and their derivatives according to formula I in a dose-dependent manner, whilst the control reaction, was unaffected. The measured IC50 values for inhibition of monoamine oxidase activity by carnosic acid, carnosic acid-12-methyl ether and 20-deoxo-carnosol are shown in Table 3.

mouse = assay: Porsolt's forced swim test (FST); assay type: in vivo
Method: Mice were individually placed in cylinders (24.5 cm height, 19.5 cm internal diameter) containing 13.5 cm depth of water (22±0.5° C.) for a period of 6 minutes, behavioural parameters of interest being analysed during the final 4 minutes of the test, since the first 2 minutes include vigorous activity. Six cylinders were placed in a Perspex box, thus enabling six mice to be tested simultaneously.
Automatic monitoring of swim tests was enabled through the use of VideoMot2 software (TSE Technical and Scientific Equipment GmbH, Bad Homburg, Germany). All to experiments were observed via a black and white CCD camera. The rest:locomotion and stop:start thresholds, as determined by setting parameters in the software programme, determine the number of pixels which must change for a movement to be registered, enabling the software to determine whether a mouse is swimming or resting. The parameters which are automatically recorded include: rest time and locomotion time (ms), % rest and % locomotion, distance travelled (cm), speed of travel (cm/s) and number of stops.
Data were analysed by comparing treated groups with the untreated control group using Fisher's PLSD (StatView, SAS Institute Inc., Cary, N.C., USA)

CC(C)c1cc2c(c(O)c1O)[C@@]1(C(=O)O)CCCC(C)(C)[C@@H]1CC2 [Carnosic acid, carnosic acid]
IC50 [1]: 8.6 ± 0.6 µM
Duration of immobility (% change from control) (mouse; 10 mg/kg i.p., −30 min): −29%
Duration of immobility (% change from control) (mouse; 20 mg/kg i.p., −30 min): −30%
Duration of immobility (% change from control) (mouse; 30 mg/kg i.p., −30 min): −29%
Duration of immobility (% change from control) (mouse; 200 mg/kg p.o., −24, −5, −1 h): −38%
immobility behaviour (in words) (mouse; all doses tested, i.p. and p.o. administration): significantly reduced immobility behaviour
